ChEMBL document CHEMBL1201862, “PubChem BioAssay data set” (2004)
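The compound was tested at five concentrations on cells cultured in 96-well plates, with a 48-hour exposure period. Abbreviation: GI50, concentration required for 50% inhibition of growth.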 The source made the active and inactive calls. No stated cut-off is given here; in the data, active = GI50 up to about 1.1 µM and inactive = higher.

Assays:
Experiment in all cases: NCI tumour cell line growth inhibition, 48 h
[1] = system: SR
[2] = system: SF-539
[3] = system: OVCAR-5
[4] = system: CAKI-1
[5] = system: HCT-15
[6] = system: HOP-62
[7] = system: NCI-H522
[8] = system: HCT-116
[9] = system: NCI-H460
[10] = system: SK-OV-3
[11] = system: HT-29
[12] = system: RXF 393
[13] = system: MOLT-4
[14] = system: HOP-92
[15] = system: MCF7
[16] = system: PC-3
[17] = system: NCI/ADR-RES
[18] = system: MDA-MB-231
[19] = system: KM12

Structure (SMILES)	GI50 [1]	GI50 [2]	GI50 [3]	GI50 [4]	GI50 [5] [µM]	GI50 [6]	GI50 [7]	GI50 [8]	GI50 [9]	GI50 [10]	GI50 [11]	GI50 [12]	GI50 [13]	GI50 [14]	GI50 [15]	GI50 [16]	GI50 [17]	GI50 [18]	GI50 [19]
COc1ccc(C(=O)Cc2ccc(Br)cc2)cc1OC	> 100 µM (inactive)	> 100 µM (inactive)	> 100 µM (inactive)	> 100 µM (inactive)	> 100	79.1 µM (inactive)	79.3 µM (inactive)	> 100 µM (inactive)	> 100 µM (inactive)	> 100 µM (inactive)	> 100 µM (inactive)	72.8 µM (inactive)	> 100 µM (inactive)	–	–	–	–	–	–
NC(Cc1ccccc1)C(=O)N[C@H]1c2ccsc2/C(=N/O)[C@H]1O (stereo partly specified)	> 100 µM (inactive)	> 100 µM (inactive)	> 100 µM (inactive)	> 100 µM (inactive)	> 100	> 100 µM (inactive)	–	> 100 µM (inactive)	> 100 µM (inactive)	> 100 µM (inactive)	> 100 µM (inactive)	> 100 µM (inactive)	> 10 µM (inactive)	> 100 µM (inactive)	> 100 µM (inactive)	> 100 µM (inactive)	> 100 µM (inactive)	> 100 µM (inactive)	–
O=C1CN=C(c2ccccc2)c2ccncc2N1	> 100 µM (inactive)	> 100 µM (inactive)	> 100 µM (inactive)	> 100 µM (inactive)	–	> 100 µM (inactive)	> 100 µM (inactive)	> 100 µM (inactive)	–	> 100 µM (inactive)	> 100 µM (inactive)	> 100 µM (inactive)	> 100 µM (inactive)	> 100 µM (inactive)	–	–	–	–	16.2 µM (inactive)
COc1ccc(-c2nc(Sc3c([N+](=O)[O-])ncn3C)n[nH]2)cc1	3.23 µM (inactive)	1.87 µM (inactive)	21 µM (inactive)	4.35 µM (inactive)	–	19.1 µM (inactive)	2.27 µM (inactive)	2.81 µM (inactive)	8.77 µM (inactive)	4.17 µM (inactive)	2.39 µM (inactive)	1.77 µM (inactive)	2.85 µM (inactive)	2.55 µM (inactive)	–	–	–	–	1.99 µM (inactive)
CC(=O)c1c2c(cc3c1CC1(C3)Cc3cc4c(c(C(=O)O)c3C1)CCC4)CCC2 (stereo unspecified)	25.2 µM (inactive)	19.2 µM (inactive)	> 100 µM (inactive)	36.9 µM (inactive)	–	36.5 µM (inactive)	15.9 µM (inactive)	24.9 µM (inactive)	32 µM (inactive)	–	44.5 µM (inactive)	45.5 µM (inactive)	25.9 µM (inactive)	33.2 µM (inactive)	–	–	–	–	44.2 µM (inactive)
C/C(=N\O)C(CN(C)C)C(c1ccccc1)c1c(O)c2ccccc2oc1=O (stereo unspecified)	> 100 µM (inactive)	> 100 µM (inactive)	> 100 µM (inactive)	> 100 µM (inactive)	> 100	> 100 µM (inactive)	> 100 µM (inactive)	> 100 µM (inactive)	–	> 100 µM (inactive)	> 100 µM (inactive)	> 100 µM (inactive)	> 100 µM (inactive)	34.9 µM (inactive)	–	–	–	–	> 100 µM (inactive)
Cc1cc(C)nc(NS(=O)(=O)c2ccc(NC(=O)COC(=O)c3cccc4c(=O)c5ccccc5[nH]c34)cc2)n1	28.6 µM (inactive)	19.5 µM (inactive)	20.7 µM (inactive)	> 100 µM (inactive)	> 100	23.7 µM (inactive)	27.2 µM (inactive)	23.7 µM (inactive)	49 µM (inactive)	38.8 µM (inactive)	33 µM (inactive)	36.5 µM (inactive)	31.3 µM (inactive)	31.1 µM (inactive)	–	–	–	–	19.3 µM (inactive)
CN(C)C(=N)NC(=S)N(C)C	> 100 µM (inactive)	> 100 µM (inactive)	> 100 µM (inactive)	> 100 µM (inactive)	> 100	> 100 µM (inactive)	> 100 µM (inactive)	> 100 µM (inactive)	> 100 µM (inactive)	> 100 µM (inactive)	> 100 µM (inactive)	> 100 µM (inactive)	> 100 µM (inactive)	> 100 µM (inactive)	–	–	–	–	> 100 µM (inactive)
Cc1ccccc1NC(=O)C1C(=O)N(c2ccccc2C)C(=O)/C1=N\NC(N)=S (stereo unspecified)	> 100 µM (inactive)	> 100 µM (inactive)	–	> 100 µM (inactive)	–	–	> 100 µM (inactive)	> 100 µM (inactive)	–	> 100 µM (inactive)	> 100 µM (inactive)	–	> 100 µM (inactive)	> 100 µM (inactive)	–	–	–	–	> 100 µM (inactive)
CC(=O)Oc1cc(Cl)c(OC(C)=O)c2c(OC(C)=O)c(C)c(O[Si](C)(C)C(C)(C)C)cc12	3.62 µM (inactive)	14.5 µM (inactive)	–	16 µM (inactive)	4.76	19.1 µM (inactive)	5.07 µM (inactive)	3.35 µM (inactive)	3.79 µM (inactive)	–	–	3.28 µM (inactive)	3.31 µM (inactive)	7.52 µM (inactive)	–	–	–	–	12.8 µM (inactive)
COc1ccc(Cc2nc3cc([N+](=O)[O-])ccc3n2C[C@@H]2CCCN3CCCCC23)cc1 (stereo partly specified)	–	–	29.3 µM (inactive)	19.3 µM (inactive)	23.4	19.3 µM (inactive)	–	14.7 µM (inactive)	28.2 µM (inactive)	20.2 µM (inactive)	17 µM (inactive)	15.4 µM (inactive)	18.6 µM (inactive)	12.8 µM (inactive)	27.2 µM (inactive)	27.1 µM (inactive)	25.2 µM (inactive)	19.3 µM (inactive)	16.3 µM (inactive)
CC(=O)CC(=O)ON(C)C(=O)Cc1ccccc1	> 100 µM (inactive)	> 100 µM (inactive)	> 100 µM (inactive)	> 100 µM (inactive)	> 100	> 100 µM (inactive)	> 100 µM (inactive)	> 100 µM (inactive)	> 100 µM (inactive)	> 100 µM (inactive)	> 100 µM (inactive)	> 100 µM (inactive)	> 100 µM (inactive)	> 100 µM (inactive)	–	–	–	–	> 100 µM (inactive)
COc1cccc(OC)c1C(=O)OCc1ccccc1	> 100 µM (inactive)	> 100 µM (inactive)	–	> 100 µM (inactive)	> 100	> 100 µM (inactive)	> 100 µM (inactive)	> 100 µM (inactive)	> 100 µM (inactive)	> 100 µM (inactive)	> 100 µM (inactive)	> 100 µM (inactive)	> 100 µM (inactive)	> 100 µM (inactive)	–	–	–	–	> 100 µM (inactive)
O=S1(=O)C[C@@H](O)[C@H](O)CS1	> 100 µM (inactive)	> 100 µM (inactive)	> 100 µM (inactive)	> 100 µM (inactive)	–	> 100 µM (inactive)	> 100 µM (inactive)	> 100 µM (inactive)	> 100 µM (inactive)	> 100 µM (inactive)	> 100 µM (inactive)	> 100 µM (inactive)	> 100 µM (inactive)	> 100 µM (inactive)	–	–	–	–	> 100 µM (inactive)
O=C(Cc1nc2ccc(C(=O)c3ccccc3)cc2nc1O)C(=O)Nc1ccc(C(F)(F)F)cc1[N+](=O)[O-]	26.9 µM (inactive)	53.3 µM (inactive)	> 100 µM (inactive)	30.8 µM (inactive)	> 100	91.8 µM (inactive)	31.3 µM (inactive)	96.2 µM (inactive)	57.8 µM (inactive)	> 100 µM (inactive)	50.9 µM (inactive)	–	22.8 µM (inactive)	35.3 µM (inactive)	–	–	–	–	59 µM (inactive)
Clc1ccc(Cl)c2[s+]snc12	> 100 µM (inactive)	46 µM (inactive)	> 100 µM (inactive)	> 100 µM (inactive)	29.4	> 85.3 µM (inactive)	18.1 µM (inactive)	21.6 µM (inactive)	30.7 µM (inactive)	> 100 µM (inactive)	25 µM (inactive)	–	> 79.6 µM (inactive)	> 60.7 µM (inactive)	–	–	–	–	> 67.5 µM (inactive)
C/C(=N/Nc1ccc([N+](=O)[O-])cc1[N+](=O)[O-])C(CC(C(=O)NCc1ccccc1)/C(C)=N\Nc1ccc([N+](=O)[O-])cc1[N+](=O)[O-])C(=O)NCc1ccccc1 (stereo unspecified)	9.1 µM (inactive)	4.06 µM (inactive)	19.4 µM (inactive)	7.03 µM (inactive)	10.3	3.88 µM (inactive)	< 0.01 µM (active)	4.88 µM (inactive)	5.51 µM (inactive)	15.6 µM (inactive)	6.14 µM (inactive)	4.24 µM (inactive)	–	2.88 µM (inactive)	–	–	–	–	4.86 µM (inactive)
N#COc1ccc(Oc2ccc(OC#N)cc2)cc1	24.1 µM (inactive)	43.5 µM (inactive)	> 100 µM (inactive)	> 100 µM (inactive)	42.8	> 100 µM (inactive)	43.4 µM (inactive)	> 100 µM (inactive)	28.2 µM (inactive)	> 100 µM (inactive)	70.6 µM (inactive)	> 100 µM (inactive)	72.4 µM (inactive)	> 100 µM (inactive)	–	–	–	–	> 100 µM (inactive)
N#CC1=C(c2ccccc2)NNC(c2ccc(Cl)cc2)CC1=O (stereo unspecified)	39.2 µM (inactive)	–	37.1 µM (inactive)	40.6 µM (inactive)	26.2	23.3 µM (inactive)	20.4 µM (inactive)	49.3 µM (inactive)	36.1 µM (inactive)	44.4 µM (inactive)	30.8 µM (inactive)	54.2 µM (inactive)	58.7 µM (inactive)	43.3 µM (inactive)	–	–	–	–	38 µM (inactive)
